Source: PubChem BioAssay (NCI)
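Cells were grown in 96-well plates and exposed to each compound for 48 hours at five concentrations; endpoints were interpolated linearly between bracketing concentrations, or set to the highest concentration if not reached. Abbreviation: GI50, concentration required for 50% inhibition of growth. TGI: concentration producing complete growth inhibition.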

Assays:
Experiment in all cases: DTP human tumour cell line panel, 48 h
T-47D breast = test system: T-47D breast
HS 578T breast = test system: HS 578T breast
SF-268 CNS = test system: SF-268 CNS
HOP-62 NSCLC = test system: HOP-62 NSCLC
SN12C renal = test system: SN12C renal
UACC-257 melanoma = test system: UACC-257 melanoma
COLO 205 colon = test system: COLO 205 colon
NCI-H460 lung = test system: NCI-H460 lung
NCI/ADR-RES ovarian = test system: NCI/ADR-RES ovarian
NCI-H226 lung = test system: NCI-H226 lung

Compound	GI50 (T-47D breast)	TGI (T-47D breast)	GI50 (HS 578T breast)	TGI (HS 578T breast)	GI50 (SF-268 CNS)	TGI (SF-268 CNS)	GI50 (HOP-62 NSCLC)	TGI (HOP-62 NSCLC)	GI50 (SN12C renal)	TGI (SN12C renal)	GI50 (UACC-257 melanoma)	TGI (UACC-257 melanoma)	GI50 (COLO 205 colon)	TGI (COLO 205 colon)	GI50 (NCI-H460 lung)	TGI (NCI-H460 lung)	GI50 (NCI/ADR-RES ovarian)	TGI (NCI/ADR-RES ovarian)	GI50 (NCI-H226 lung)	TGI (NCI-H226 lung)
CC1C(=O)c2cc3c(cc2CCN(C)Cc2c1ccc1c2OCO1)OCO3 (stereo not given)	> 75 µg/mL	> 75 µg/mL	> 75 µg/mL	> 75 µg/mL	> 75 µg/mL	> 75 µg/mL	> 75 µg/mL	> 75 µg/mL	> 75 µg/mL	> 75 µg/mL	36.1 µg/mL	> 75 µg/mL	26.2 µg/mL	> 75 µg/mL	40.3 µg/mL	> 75 µg/mL	58.3 µg/mL	> 75 µg/mL	> 75 µg/mL	> 75 µg/mL
Clc1ccc(Nc2nc(Nc3ccccc3)nc(Nc3ccc(-c4cc(-c5ccc(Cl)cc5)on4)cc3)n2)cc1	8.94 µM	> 100 µM	11.4 µM	> 100 µM	43.4 µM	> 100 µM	18.4 µM	> 100 µM	24.8 µM	> 100 µM	29.8 µM	> 100 µM	11.9 µM	32.5 µM	17.9 µM	> 100 µM	21.1 µM	> 100 µM	38.8 µM	> 100 µM
O=C(Cc1csc2nc(-c3ccc(Cl)cc3)cn12)N/N=C/c1ccccc1O	4.16 µM	> 100 µM	10 µM	> 100 µM	1.26 µM	54.8 µM	4.67 µM	> 100 µM	11 µM	> 100 µM	4.74 µM	> 100 µM	2.93 µM	> 100 µM	1.39 µM	> 100 µM	2.6 µM	81.8 µM	4.65 µM	> 100 µM
O=C1C2Cc3c(n(C(=O)c4ccccc4)c4ccccc34)CC2C(=O)N1c1ccc(Nc2ccc(N3C(=O)C4Cc5c(n(C(=O)c6ccccc6)c6ccccc56)CC4C3=O)cc2)cc1 (stereo not given)	–	> 100 µM	–	> 100 µM	–	> 100 µM	–	> 100 µM	–	> 100 µM	–	> 100 µM	–	> 100 µM	–	> 100 µM	–	> 100 µM	–	> 100 µM
CC1=C[C@@H](C)C[C@]2(C)CC[C@H](O2)[C@]23CC[C@](CO)(C[C@H](O2)[C@@H]2O[C@@](C)(CC2=O)[C@@H](O)[C@H]2CC[C@@]4(CCC[C@@H](O4)[C@H](C)C(=O)O[C@H]4C[C@H]([C@]5(O)OCC[C@H](C)[C@@H]5O)O[C@H]4C=C1)O2)O3	–	> 10 µM	–	0.00776 µM	–	0.0252 µM	–	0.041 µM	–	> 10 µM	–	–	–	0.00377 µM	–	> 10 µM	–	> 10 µM	–	–
COC(=O)c1cc(NC(=O)c2cc(NC(=O)Cc3c[nH]c4ccccc34)cn2C)cn1C	–	> 100 µM	–	–	–	> 100 µM	–	> 100 µM	–	> 100 µM	–	–	–	76.3 µM	–	> 100 µM	–	> 100 µM	–	> 100 µM
CN(C)C(=O)OC1=CC2CCC(C1)N2C (stereo not given)	–	> 100 µM	–	> 100 µM	–	> 100 µM	–	> 100 µM	–	> 100 µM	–	> 100 µM	–	> 100 µM	–	> 100 µM	–	> 100 µM	–	> 100 µM
COc1ccc(-n2c3c(c4cc(O)ccc42)Cc2ccccc2C3=O)cc1	–	–	–	> 100 µM	–	> 100 µM	–	> 100 µM	–	> 100 µM	–	> 100 µM	–	51 µM	–	> 100 µM	–	> 100 µM	–	> 100 µM
COc1ccc(-c2nn(-c3ccc(NC(=O)c4cc(Cl)cc(Cl)c4)cc3)cc2-c2ccncc2)cc1Cl	> 100 µM	> 100 µM	–	–	> 100 µM	> 100 µM	8.12 µM	> 100 µM	> 100 µM	> 100 µM	> 100 µM	> 100 µM	> 100 µM	> 100 µM	6.08 µM	> 100 µM	> 100 µM	> 100 µM	> 100 µM	> 100 µM
O=C(CC(c1ccccc1)C1C(=O)NC(=S)NC1=O)c1ccc([N+](=O)[O-])cc1 (stereo not given)	–	> 100 µM	–	> 100 µM	–	> 100 µM	–	> 100 µM	–	> 100 µM	–	> 100 µM	–	> 100 µM	–	> 100 µM	–	> 100 µM	–	> 100 µM
O=C(/C=C1\N=C(c2ccccc2)N(c2nc3c(Cl)cc(Cl)cc3s2)C1=O)/C=C/c1ccccc1	–	> 100 µM	–	> 100 µM	–	> 100 µM	–	> 100 µM	–	> 100 µM	–	> 100 µM	–	> 100 µM	–	> 100 µM	–	> 100 µM	–	–
COc1cc(C2c3cc4c(cc3[C@@H](Nc3ccc(Oc5ccccc5)cc3)C3COC(=O)[C@H]23)OCO4)cc(OC)c1O (stereo not given in full)	–	–	–	–	–	> 100 µM	–	4.15 µM	–	> 25.5 µM	–	20.1 µM	–	13 µM	–	12.2 µM	–	> 100 µM	–	7.9 µM
O=C(Nc1ccc(-n2ccc3c(NC(=O)c4ccccc4)nccc32)cc1)Nc1cccc(C(F)(F)F)c1	11.1 µM	31 µM	6.39 µM	40 µM	10.5 µM	30.2 µM	5.65 µM	19.1 µM	13.4 µM	27 µM	11.2 µM	26 µM	6.19 µM	19.6 µM	2.74 µM	13.4 µM	10.9 µM	28.7 µM	14.3 µM	29.8 µM
O=C1/C(=C/c2[nH]ncc2-c2ccc(Cl)cc2)C(=O)N(c2ccccc2)C1c1ccccc1 (stereo not given)	–	17.3 µM	–	24.2 µM	–	40.9 µM	–	63.2 µM	–	85.7 µM	–	64.7 µM	–	32.8 µM	–	> 100 µM	–	> 100 µM	–	67.3 µM
